# According to US20210393793A1, “AXL-SPECIFIC ANTIBODIES FOR TREATMENT OF NON-SMALL CELL LUNG CANCER” (priority 2018, published 2021):
# “Also recorded” adds a separate entry of the source.
# Columns and labels:
# [1] = tested on: patients with solid tumors; assay: Phase I dose escalation: DLTs, MTD, RP2D, adverse events; assay type: in vivo, human
# Source text: The present study was an open label, multi-center Phase I/IIa safety trial of HuMax AXL ADC in a mixed population of patients with solid tumors known from the literature to overexpress Axl and where the use of systemic tubulin inhibitors is part of Standard of Care (SoC). The trial consisted of two parts; a dose escalation part (phase I, first-in-human (FIH)) and an expansion part (phase IIa).
# The dose escalation part consists of two, staggered, arms for identification of the most optimal dosing regimen: • 1Q3W: Dosing once every 3 weeks • 3Q4W: Weekly dosing for 3 weeks followed by one treatment-free week.
# The 1Q3W dose escalation evaluated HuMax-AXL-ADC at seven main dose levels: 0.3, 0.6, 1.0, 1.5, 2.0, 2.4 and 2.8 mg/kg, and 4 optional intermediate dose levels 1.25, 1.8, 2.2 and 2.6 mg/kg. Further escalation with steps of 0.4 mg/kg and de-escalation by 0.2 mg/kg was allowed, if the MTD had not been declared at a dose level up to 2.8 mg/kg.
# In the 1Q3W dose escalation the patients received 1 infusion of HuMax-AXL-ADC every three weeks as according to FIG. 2.
# The 3Q4W dose escalation was conducted as a standard 3 (+3) design which evaluatedHuMax-AXL-ADC at doses of (0.45), 0.6, 0.8, 1.0, 1.2 and 1.4 mg/kg. The escalation was allowed to continue to higher dose levels with increments up to 20%, if the 1.4 mg/kg was reached without significant safety concerns and it was considered safe to escalate above 1.4 mg/kg, the. The starting dose was expected to be 0.6 mg/kg (a dose level of 0.45 mg/kg could be added) and as an additional precaution, the independent Data Monitoring Committee (DMC) could recommend intermediate dose levels at any step during dose escalation.
# In the 3Q4W dose escalation the patients received weekly dosing for 3 weeks followed by one treatment-free week according to FIG. 3. Patients were treated until disease progression or unacceptable toxicity was observed.
# (§1) Primary Endpoints • Dose Limiting Toxicities (DLTs) • Adverse events (AEs): incidences of AEs, serious adverse events (SAEs), infusion-related AEs, grade 3 AEs, and AEs related to IMP during the trial.
# [2] = Phase I dose escalation: PK parameters; assay type: in vivo, human; conditions: across doses/schedules
# Source text: (§2) Secondary Endpoints • Safety laboratory parameters (hematology and biochemistry). • PK parameters (clearance, volume of distribution and area-under-the-concentration-time curve [AUC0-Clast and AUC0-∞], maximum concentration [Cmax], time of Cmax [Tmax], pre dose values, and half-life of HuMax-AXL-ADC and free toxin monomethyl auristatin E [MMAE]). • Immunogenicity of HuMax-AXL-ADC (anti-drug antibodies). • Anti-tumor activity measured by tumor shrinkage (based on computerized tomography [CT]-scan evaluations), as well as change in CA 125 in patients with ovarian cancer and change in prostate specific antigen (PSA) in patients with castration-resistant prostate cancer (CRPC). • Objective Response, Progression-Free Survival (PFS), Duration of Response (DoR) and Overall survival (OS). • Axl expression in the tumor biopsy.
# [3] = tested on: patients with solid tumors; assay: Dose escalation: anti-tumor response (RECIST v1.1); assay type: in vivo, human; conditions: for patients with a partial response: 1Q3W arm
# Source text: as §2
# (§3) Response in solid tumor cancers was assessed in accordance with the RECIST criteria version 1.1^18 and for patients with ovarian cancer according to RECIST 1.1 in combination with CA 125 as defined by the Gynecological Cancer Intergroup^2.
# In the dose escalation, response evaluation was performed by the investigator and sponsor. In the expansion, response evaluation was performed by the investigator and sponsor as well as a group of external medical experts. Each patient was assigned one of the following categories:
# Patients in response categories 1 and 2 were considered responders and patients in response categories 4 and 5 were considered as failing to respond to treatment (disease progression). Patients in response categories 1, 2 and 3 were considered to be in disease control.
# [4] = tested on: EGFR mutated NSCLC patients; assay: Expansion cohort 1: response (RECIST v1.1); assay type: in vivo, human
# Source text: (§4) Patients had to meet all of the following inclusion criteria before they will be allowed to participate in the trial: • 1. For the dose escalation part: Patients with relapsed or refractory cancer of the ovary, cervix, endometrium, thyroid, non-small cell lung cancer (NSCLC), or melanoma (cutaneous, mucosal, acral or uveal melanoma) who have failed available standard therapy or who are not candidates for standard therapy, and for whom, in the opinion of the investigator, experimental therapy with HuMax-AXL-ADC may be beneficial. • For the expansion part: Patients with relapsed or refractory, advanced and/or metastatic cancer who were not candidates for standard therapy, and for whom, in the opinion of the investigator, experimental therapy with HuMax-AXL-ADC could be beneficial. […] Cohorts 1 and 2 included non-small cell lung cancer patients who had failed anticancer therapy as follows: • Expansion Cohort 1 (NSCLC patients with classical sensitizing EGFR mutations and/or other EGFR resistance mutations targeted by third generation TKIs (e.g. T790M for osimertinib)): • NSCLC patients after failure of up to 4 prior treatment regimens containing systemic therapy for metastatic disease • adjuvant and maintenance treatment is considered being part of one treatment regimen. • Documented progressive disease on or after last prior treatment • Last prior treatment to enrolment to GCT1021-01 should have been: • an EGFR inhibitor (e.g. Erlotinib, Osimertinib, etc.), • or a PD-1/PD-L1 inhibitor, • or a platinum-based doublet chemotherapy. • Expansion Cohort 2 (NSCLC patients without sensitizing EGFR mutations or ALK rearrangements) • NSCLC patients after failure of up to 4 prior treatment regimens containing systemic therapy for metastatic disease. • adjuvant and maintenance treatment is considered being part of one treatment regimen. • Documented progressive disease on or after last prior treatment. • Last prior treatment to enrolment to GCT1021-01 should have been • a PD-1/PD-L1 inhibitor. • or a chemotherapy (containing platinum, and/or taxane, and/or pemetrexed, and/or gemcitabine). • For the following conditions in Expansion Cohorts 1-2, the sponsor medical officer's approval of enrolment was needed: • if documented progression had not been on measurable disease (i.e. symptomatic progression). • if last prior treatment to enrolment was a combination therapy which contained an EGFR inhibitor or a PD-1/PD-L1 inhibitor. • if last prior treatment to enrolment contain chemotherapies other than platinum, and/or taxane, and/or pemetrexed, and/or gemcitabine (only applicable for NSCLC patients without sensitizing EGFR mutations or ALK rearrangements). • 2. […] In the dose escalation part all patients were required provide a tumor tissue sample (Formalin Fixed Paraffin Embedded blocks/slides) from archival tissue or fresh biopsy collected before Cycle 1, Visit 1, preferably derived from advanced disease stage. In the expansion part all patients were required to provide a fresh biopsy (aspirates were not acceptable) taken after failure/stop of last prior treatment. Furthermore the latest available tumor tissue sample had to be collected if available. • 4. Age 18 years. • 5. […]
# [5] = tested on: NSCLC patients without sensitizing EGFR mutations or ALK rearrangements; assay: Expansion cohort 2: response (RECIST v1.1); assay type: in vivo, human
# Source text: as §4, with “5. Have an acceptable renal function defined as: • Glomerular filtration rate (GFR)≥40 mL/min/1.73 m^2—e.g., according to the abbreviated Modification of Diet in Renal Disease (MDRD) equation: GFR=186×(SCr^−1.154)×(age^−0.203)(where SCr, the serum creatinine level, is expressed in mg/dL; multiply it by 0.742 if the patient was female; multiply it by 1.212, if the patient was African-American^3). • Not being on dialysis. • 6. Have an acceptable liver function defined as: • Alanine aminotransferase (ALT) and aspartate aminotransferase (AST)≤3 times the ULN; if liver tumor/metastases were present, then ≤5×ULN was allowed. • Bilirubin≤1.5×ULN, except in patients diagnosed with Gilbert's syndrome, direct bilirubin≤2×ULN. • 7.” for “5.”
# [6] = tested on: non-small cell lung andenocarcinoma; assay: Subject examples: tumor assessments by scan (RECIST 1.1); assay type: in vivo, human
# Protocol: as §3
# Tumor shrinkage (based on CT-scan evaluations) was listed and summarized, per source (radiologist, central read).
# [7] = tested on: non-small cell lung andenocarcinoma patients; assay: Subject examples: treatment emerging events; assay type: in vivo, human; conditions: listed as enapotamab vendotin
# Source text: as §1
# cynomolgus monkeys = assay: Toxicokinetic and toxicology data in cynomolgus monkeys; assay type: in vivo
# [8] = 34 patients treated in expansion
# [9] = 36 patients treated with 2.2 mg/kg (escalation+expansion)
# [10] = of 34 patients treated in expansion
# [11] = of 36 patients treated with 2.2 mg/kg (escalation+expansion)
substance,measurement,setting,value
Enapotamab vedotin [HuMax-AXL-ADC],Maximum Tolerated Dose (MTD),[1]; 1Q3W arm,2.2 mg/kg
same,Recommended Phase 2 Dose (RP2D),[1]; 1Q3W dosing regime,2.2 mg/kg
same,Maximum Tolerated Dose (MTD),[1]; 3Q4W arm,1.0 mg/kg
same,number of DLTs,[1]; 47 patients enrolled,6
same,Adverse Effects (any grade): constipation,[1]; % of 47 patients,57%
same,Adverse Effects (any grade): decreased appetite,[1]; % of 47 patients,43%
same,Adverse Effects (any grade): diarrhea,[1]; % of 47 patients,47%
same,Adverse Effects (any grade): fatigue,[1]; % of 47 patients,64%
same,Adverse Effects (any grade): nausea,[1]; % of 47 patients,57%
same,Adverse Effects (any grade): vomiting,[1]; % of 47 patients,45%
same,median elimination half-life,[2],22 to 52.8 h
same,patients with a partial response,"[3]; NSCLC, 2.2 mg/kg dose",1
same,patients with a partial response,[3]; all tumor types,Three
same,patients with a partial response,"[3]; ovarian, 1.5 and 2.4 mg/kg dose levels",2
same,antitumor activity,"[3]; single agent, pre-treated patients with solid tumors",encouraging preliminary antitumor activity
same,Disease Control Rate (DCR),[4]; 18 patients treated,39%
same,Objective Response Rate (unconfirmed),[4]; 18 patients treated,5.5%
same,patients with Best Overall Response (BoR) of unconfirmed PR,[4]; of 18 patients treated,1
same,patients with BoR of PD,[4]; of 18 patients treated,6
same,patients with BoR of SD,[4]; of 18 patients treated,6
same,DCR,[5]; [8],47%
same,Objective Response Rate (ORR) (confirmed),[5]; [8],11%
same,DCR,[5]; [9],50%
same,ORR (confirmed),[5]; [9],13.8%
same,patients with BoR of PD,[5]; [10],7
same,patients with BoR of SD,[5]; [10],12
same,patients with BoR of confirmed PR,[5]; [10],4
same,patients with BoR of PD,[5]; [11],7
same,patients with BoR of SD,[5]; [11],13
same,patients with BoR of confirmed PR,[5]; [11],5
same,decrease in sum of diameters compared to screening,"[6]; Subject 401, C2D15",15%
same,sum of diameters of target lesions,"[6]; Subject 401, C2D15, screening 26 mm",22 mm
same,decrease in sum of diameters compared to screening,"[6]; Subject 401, C4D15",34.6%
same,sum of diameters of target lesions,"[6]; Subject 401, C4D15, screening 26 mm",17 mm
same,decrease in sum of diameters compared to screening,"[6]; Subject 401, C6D15",57.6%
same,sum of diameters of target lesions,"[6]; Subject 401, C6D15, screening 26 mm",11 mm
same,decrease in sum of diameters compared to screening,"[6]; Subject 403, C2D15",19.3%
same,sum of diameters of target lesions,"[6]; Subject 403, C2D15, screening 88 mm",71 mm
same,decrease in sum of diameters compared to screening,"[6]; Subject 403, C4D15",35.2%
same,decrease in sum of diameters compared to screening,"[6]; Subject 403, C6D15",36.4%
same,sum of diameters of target lesions,"[6]; Subject 403, second post-baseline scan (C4D15), screening 88 mm",57 mm
same,sum of diameters of target lesions,"[6]; Subject 403, third post-baseline scan (C6D15), screening 88 mm",56 mm
same,decrease in sum of diameters compared to screening,"[6]; Subject 406, C2D15",46.8%
same,sum of diameters of target lesions,"[6]; Subject 406, C2D15, screening 32 mm",17 mm
same,"Treatment emerging events (grade, relatedness)",[7]; Subject 401,"urinary tract infection (G2, unrelated); also recorded: creatinine kinase increase (fluctuating between G1 and G2, possibly related); also recorded: muscle cramps (G1, possibly related); also recorded: worsening of cough (G2, unrelated); also recorded: ALT increase and AST increase (both G1 and unrelated); also recorded: dysphonia and left leg weakness, both events reported as G1 and possibly related"
same,"Treatment emerging events (grade, relatedness)",[7]; Subject 403,"two episodes of nausea (both Gland possibly related); also recorded: skin and subcutaneous tissue disorder (G1, not related); also recorded: constipation (G2, related); also recorded: two episodes of anorexia (G1, first episode unrelated, second episode possibly related); also recorded: gastroesophageal reflux (G1, not related); also recorded: alopecia (G1, related); also recorded: AST increase (G1, possibly related)"
same,"recovery of neutrophils, thrombocytes and red blood cell parameters","cynomolgus monkeys; cynomolgus monkey, in vivo",adequate recovery
same,safety profile,cynomolgus monkeys; cynomolgus monkeys,acceptable safety profile
